Reference: US20100267561A1, “HERBICIDAL PYRIDAZINONE DERIVATIVES” (priority 2007, published 2010)

Key:
Format in all cases: in vivo
[1] = test system: barnyardgrass (Echinochloa crus-galli); test: Test A pre-/postemergence plant response
Summary of the method: (§1)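 Both pre- and postemergence treatment given concurrently; postemergence seedlings measured 2–10 cm at the one- to two-leaf stage. Visual injury, 0–100 scale versus untreated, at ~10 days.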

[2] = test system: corn (Zea mays); test: Test A pre-/postemergence plant response
Summary of the method: as §1

[3] = test system: morningglory (Ipomoea coccinea); test: Test A pre-/postemergence plant response
Summary of the method: as §1

[4] = test system: pigweed (Amaranthus retroflexus); test: Test A pre-/postemergence plant response
Summary of the method: as §1

[5] = test system: wheat (Triticum aestivum); test: Test A pre-/postemergence plant response
Summary of the method: as §1

[6] = test system: catchweed bedstraw (Galium aparine); test: Test B pre-/postemergence plant response; details: Preemergence; for Galium plant response rating: scale 0 to 100
Summary of the method: (§2)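 Preemergence and postemergence (plants 2-18 cm, 1- to 4-leaf stage) applications used test chemicals in a non-phytotoxic solvent with surfactant. Plants were held in a greenhouse 13 to 15 days, then rated visually against controls on a 0-100 scale (0 no effect, 100 complete control).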

[7] = test system: johnsongrass (Sorghum halepense); test: Test B pre-/postemergence plant response
Summary of the method: as §2

[8] = test system: pigweed (Amaranthus retroflexus); test: Test B pre-/postemergence plant response
Summary of the method: as §2

[9] = test system: canarygrass (Phalaris minor); test: Test B postemergence plant response; details: for Canarygrass plant response rating: 8 g ai/ha, postemergence, 0-100 scale; for Plant response rating, Canarygrass: Postemergence
Summary of the method: (§3)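 Compounds applied after emergence to 2–18 cm plants; response read visually 13–15 days later on 0 (none) to 100 (complete control); a dash marks no result.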

[10] = test system: chickweed (Stellaria media); test: Test B postemergence plant response; details: for Chickweed plant response rating: 8 g ai/ha, postemergence, 0-100 scale; for Plant response rating, Chickweed: Postemergence
Summary of the method: as §3

[11] = test system: windgrass (Apera spica-venti); test: Test B postemergence plant response; details: for Windgrass plant response rating: postemergence, 0-100 scale; for Plant response rating, Windgrass: Postemergence
Summary of the method: as §3

[12] = test system: winter barley (Hordeum vulgare); test: Test B postemergence plant response; details: for Barley plant response rating: 8 g ai/ha, postemergence, 0-100 scale; for Plant response rating, Barley: Postemergence, scale 0 to 100, 0 no effect, 100 complete control
Summary of the method: as §3

[13] = Postemergence, 31 g ai/ha, 0 to 100 scale, 0 no effect, 100 complete control
[14] = Postemergence, 125 g ai/ha, 0 to 100 scale, 0 no effect, 100 complete control
[15] = Preemergence, 31 g ai/ha, 0 to 100 scale, 0 is no effect, 100 is complete control
[16] = Preemergence, 125 g ai/ha, 0 to 100 scale (0 no effect, 100 complete control)
[17] = 31 g ai/ha, scale 0 to 100 (0 no effect, 100 complete control)
[18] = 62 g ai/ha, 0 to 100 scale, 0 no effect, 100 complete control
[19] = 8 g ai/ha, postemergence, 0-100 scale
[20] = Postemergence, 16 g ai/ha, scale 0 to 100
[21] = Postemergence, 31 g ai/ha, scale 0 to 100
[22] = Postemergence, 62 g ai/ha, scale 0 to 100, 0 no effect, 100 complete control
[23] = Preemergence, 31 g ai/ha, scale 0 to 100 (0 no effect, 100 complete control)
[24] = Preemergence, 62 g ai/ha, 0 to 100 scale, 0 no effect, 100 complete control
[25] = Preemergence, 8 g ai/ha, scale 0 to 100
[26] = Preemergence, 16 g ai/ha, scale 0 to 100
[27] = 62 g ai/ha, scale 0 to 100, 0 no effect, 100 complete control
[28] = 16 g ai/ha, postemergence, 0-100 scale

## CCCC(=O)Oc1cnn(C)c(=O)c1-n1nc(-c2ccc(Cl)cc2)cc1C [Compound 56]
[1]; [13]
  Plant response rating, Barnyardgrass: 100
[1]; [14]
  Plant response rating, Barnyardgrass: 100
[1]; [15]
  Plant response rating, Barnyardgrass: 80
[1]; [16]
  Plant response rating, Barnyardgrass: 100
[2]; [13]
  Plant response rating, Corn: 90
[2]; [14]
  Plant response rating, Corn: 100
[2]; [15]
  Plant response rating, Corn: 40
[2]; [16]
  Plant response rating, Corn: 80
[3]; [13]
  Plant response rating, Morningglory: 0
[3]; [14]
  Plant response rating, Morningglory: 0
[3]; [15]
  Plant response rating, Morningglory: 0
[3]; [16]
  Plant response rating, Morningglory: 0
[4]; [13]
  Plant response rating, Pigweed: 0
[4]; [14]
  Plant response rating, Pigweed: 0
[4]; [15]
  Plant response rating, Pigweed: 0
[4]; [16]
  Plant response rating, Pigweed: 0
[5]; [13]
  Plant response rating, Wheat: 70
[5]; [14]
  Plant response rating, Wheat: 80
[5]; [15]
  Plant response rating, Wheat: 20
[5]; [16]
  Plant response rating, Wheat: 80
[6]; [17]
  Plant response rating, Galium: 0
[6]; [18]
  Plant response rating, Galium: 0
[6]; 8 g ai/ha
  Galium plant response rating: 0
[6]; 16 g ai/ha
  Galium plant response rating: 0
[7]; [19]
  Johnsongrass plant response rating: 0
[7]; [20]
  Plant response rating, Johnsongrass: 65
[7]; [21]
  Plant response rating, Johnsongrass: 85
[7]; [22]
  Plant response rating, Johnsongrass: 100
[7]; [23]
  Plant response rating, Johnsongrass: 70
[7]; [24]
  Plant response rating, Johnsongrass: 100
[7]; [25]
  Johnsongrass plant response rating: 60
[7]; [26]
  Johnsongrass plant response rating: 65
[8]; [19]
  Pigweed plant response rating: 0
[8]; [20]
  Plant response rating, Pigweed: 0
[8]; [21]
  Plant response rating, Pigweed: 0
[8]; [22]
  Plant response rating, Pigweed: 0
[8]; [23]
  Plant response rating, Pigweed: 0
[8]; [24]
  Plant response rating, Pigweed: 0
[8]; [25]
  Pigweed plant response rating: 0
[8]; [26]
  Pigweed plant response rating: 0
[9]
  Canarygrass plant response rating: 50
[9]; 16 g ai/ha, scale 0 to 100
  Plant response rating, Canarygrass: 85
[9]; 31 g ai/ha, scale 0 to 100
  Plant response rating, Canarygrass: 90
[9]; [27]
  Plant response rating, Canarygrass: 95
[10]
  Chickweed plant response rating: 0
[10]; 16 g ai/ha, scale 0 to 100
  Plant response rating, Chickweed: 0
[10]; 31 g ai/ha, scale 0 to 100
  Plant response rating, Chickweed: 0
[10]; [27]
  Plant response rating, Chickweed: 0
[11]; 8 g ai/ha
  Windgrass plant response rating: 0
[11]; 16 g ai/ha, scale 0 to 100
  Plant response rating, Windgrass: 0
[11]; 31 g ai/ha, scale 0 to 100
  Plant response rating, Windgrass: 20
[11]; [27]
  Plant response rating, Windgrass: 20
[12]
  Barley plant response rating: 0
[12]; 16 g ai/ha
  Plant response rating, Barley: 40
[12]; 31 g ai/ha
  Plant response rating, Barley: 50
[12]; 62 g ai/ha
  Plant response rating, Barley: 75

## CCc1cc(-c2ccc(C(F)(F)F)cc2)nn1-c1c(O)c(OC)nn(C)c1=O [Compound 66]
[1]; [13]
  Plant response rating, Barnyardgrass: 100
[1]; [14]
  Plant response rating, Barnyardgrass: 100
[1]; [15]
  Plant response rating, Barnyardgrass: 10
[1]; [16]
  Plant response rating, Barnyardgrass: 100
[2]; [13]
  Plant response rating, Corn: 100
[2]; [14]
  Plant response rating, Corn: 100
[2]; [15]
  Plant response rating, Corn: 40
[2]; [16]
  Plant response rating, Corn: 80
[3]; [13]
  Plant response rating, Morningglory: 0
[3]; [14]
  Plant response rating, Morningglory: 0
[3]; [15]
  Plant response rating, Morningglory: 0
[3]; [16]
  Plant response rating, Morningglory: 0
[4]; [13]
  Plant response rating, Pigweed: 0
[4]; [14]
  Plant response rating, Pigweed: 0
[4]; [15]
  Plant response rating, Pigweed: 0
[4]; [16]
  Plant response rating, Pigweed: 0
[5]; [13]
  Plant response rating, Wheat: 90
[5]; [14]
  Plant response rating, Wheat: 100
[5]; [15]
  Plant response rating, Wheat: 60
[5]; [16]
  Plant response rating, Wheat: 90
[6]; [17]
  Plant response rating, Galium: 0
[6]; [18]
  Plant response rating, Galium: 0
[6]; 8 g ai/ha
  Galium plant response rating: 0
[6]; 16 g ai/ha
  Galium plant response rating: 0
[7]; [19]
  Johnsongrass plant response rating: 75
[7]; [28]
  Johnsongrass plant response rating: 100
[7]; [21]
  Plant response rating, Johnsongrass: 100
[7]; [22]
  Plant response rating, Johnsongrass: 100
[7]; [23]
  Plant response rating, Johnsongrass: 98
[7]; [24]
  Plant response rating, Johnsongrass: 100
[7]; [25]
  Johnsongrass plant response rating: 70
[7]; [26]
  Johnsongrass plant response rating: 95
[8]; [19]
  Pigweed plant response rating: 0
[8]; [28]
  Pigweed plant response rating: 0
[8]; [21]
  Plant response rating, Pigweed: 0
[8]; [22]
  Plant response rating, Pigweed: 0
[8]; [23]
  Plant response rating, Pigweed: 0
[8]; [24]
  Plant response rating, Pigweed: 95
[8]; [25]
  Pigweed plant response rating: 0
[8]; [26]
  Pigweed plant response rating: 0
[9]
  Canarygrass plant response rating: 40
[9]; 16 g ai/ha, scale 0 to 100
  Plant response rating, Canarygrass: 90
[9]; 31 g ai/ha, scale 0 to 100
  Plant response rating, Canarygrass: 95
[10]
  Chickweed plant response rating: 0
[10]; 16 g ai/ha, scale 0 to 100
  Plant response rating, Chickweed: 0
[10]; 31 g ai/ha, scale 0 to 100
  Plant response rating, Chickweed: 0
[10]; [27]
  Plant response rating, Chickweed: 0
[11]; 8 g ai/ha
  Windgrass plant response rating: 90
[11]; 16 g ai/ha
  Windgrass plant response rating: 100
[11]; 31 g ai/ha, scale 0 to 100
  Plant response rating, Windgrass: 100
[11]; [27]
  Plant response rating, Windgrass: 100
[12]
  Barley plant response rating: 90
[12]; 16 g ai/ha
  Plant response rating, Barley: 98
[12]; 31 g ai/ha
  Plant response rating, Barley: 100
